The nature of one data set: Solubility in PBS. It counts as physicochemical. The procedure, abridged:
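HPLC quantitation of peptide remaining in the PBS supernatant after ultracentrifugation, referenced to a 50 μM solution in DMSO.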

The next data set can be described thus: CHI Log D procedure. It counts as physicochemical.
For data set [1], the target named is T1, full-length beta-Catenin (Uniprot ID P35222) (Homo sapiens, UniProt P35222).
T1 construct: 10 nM full-length beta-Catenin (Uniprot ID P35222)
T1 sequence (P35222 1-781): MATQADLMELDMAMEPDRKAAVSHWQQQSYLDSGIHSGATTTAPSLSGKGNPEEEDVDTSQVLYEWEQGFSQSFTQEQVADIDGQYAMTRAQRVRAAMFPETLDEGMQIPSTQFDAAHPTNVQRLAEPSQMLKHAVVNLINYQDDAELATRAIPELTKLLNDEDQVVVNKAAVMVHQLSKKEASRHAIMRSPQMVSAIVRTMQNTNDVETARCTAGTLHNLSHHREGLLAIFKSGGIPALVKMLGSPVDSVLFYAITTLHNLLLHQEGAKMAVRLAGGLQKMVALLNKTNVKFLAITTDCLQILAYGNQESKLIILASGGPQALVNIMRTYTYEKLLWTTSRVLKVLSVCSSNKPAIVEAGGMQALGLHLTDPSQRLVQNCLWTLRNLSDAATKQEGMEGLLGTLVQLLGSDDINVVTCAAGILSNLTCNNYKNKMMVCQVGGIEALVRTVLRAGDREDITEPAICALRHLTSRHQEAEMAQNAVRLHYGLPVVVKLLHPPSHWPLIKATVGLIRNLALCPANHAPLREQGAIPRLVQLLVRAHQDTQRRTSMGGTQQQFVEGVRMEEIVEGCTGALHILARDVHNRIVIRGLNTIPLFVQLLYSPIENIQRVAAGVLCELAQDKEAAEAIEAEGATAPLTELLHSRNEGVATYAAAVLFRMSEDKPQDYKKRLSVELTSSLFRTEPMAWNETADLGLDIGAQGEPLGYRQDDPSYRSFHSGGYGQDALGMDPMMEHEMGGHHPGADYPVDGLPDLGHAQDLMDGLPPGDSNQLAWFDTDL
The experiment in a line: Fluorescence polarization IC50 (beta-catenin / 5FAM-TCF4 10-53 competition). The format is binding. (In general: Fluorescence polarisation rises when a labelled molecule tumbles more slowly, as on binding a larger partner.)

As usually defined, the Solubility is the concentration that dissolves in the medium under given conditions. As usually defined, the chromatographic logD is a lipophilicity value derived from retention on a column.

Molecules are shown by their SMILES. Converted amounts (≈) assume the structure as drawn. Where two headings read alike, the source gives them in different places.

With `CC(=O)N1CCC[C@]12CC=CCCCC1(CCCC=CCCCCCC[C@@](C)(C(=O)N[C@@H](Cc3ccccc3Cl)C(=O)N[C@@H](Cc3csc4ccccc34)C(=O)N[C@@H](CCO)C(N)=O)NC(=O)[C@H](CO)NC(=O)[C@H](Cc3ccccc3)NC(=O)[C@H](C)NC(=O)[C@H](C)NC(=O)[C@H](CN(CC(=O)O)CC(F)(F)F)NC(=O)[C@H](CC(=O)O)NC1=O)NC(=O)[C@H](CC(C)(C)C)NC(=O)[C@H](CC(=O)O)NC2=O` (stereo partly drawn) [I-998, Ac-PL3-Asp-Npg-B5-Asp-TfeGA-Ala-Ala-Phe-Ser-S8-2C1F-BztA-Hse-NH2], the “Solubility” value in the data set “Solubility in PBS” was 43 µM (≈ 84.3 µg/mL). The “CHI Log D” value in “CHI Log D procedure” (pH 7.4) is 2.87. The IC50 in data set [1] (fluorescence polarization, beta-catenin, read-out: FP EC50) was 127 nM; in data set [1] (read-out: beta-Catenin FP IC50), 127 nM.
Regarding `CC(=O)N1CCC[C@]12CC=CCCCC1(CCCC=CCCCOC(=O)N3CC[C@@](C(=O)N[C@@H](Cc4ccccc4Cl)C(=O)N[C@@H](Cc4csc5ccccc45)C(=O)N[C@@H](CCC(N)=O)C(N)=O)(C3)NC(=O)[C@H](CC(N)=O)NC(=O)[C@H](Cc3ccccc3)NC(=O)[C@H](Cc3ccccc3)NC(=O)[C@H](C)NC(=O)[C@H](CN(CC(=O)O)CC(F)(F)F)NC(=O)[C@H](CC(=O)O)NC1=O)NC(=O)[C@H](CC(C)(C)C)NC(=O)[C@H](CC(=O)O)NC2=O` (stereo partly drawn) [I-1003, Ac-PL3-Asp-Npg-B5-Asp-TfeGA-Ala-Phe-Phe-Asn-PyrS2-2C1F-BztA-Gln-NH2], the “Solubility” value in “Solubility in PBS” turned out to be 10 µM (≈ 21.3 µg/mL). The chromatographic logD in “CHI Log D procedure” (pH 7.4, CHI Log D) came to 2.54. The IC50 in data set [1] (read-out: beta-Catenin FP IC50) worked out at 38 nM.
With `CC[C@H](C)[C@@H]1NC(=O)[C@H](C)NC(=O)[C@H](CN(CC(=O)O)CC(F)(F)F)NC(=O)[C@H](CC(=O)O)NC(=O)C2(CCCC=CCCCOC(=O)N3CC[C@@](C(=O)N[C@@H](Cc4ccccc4Cl)C(=O)N[C@@H](Cc4csc5ccccc45)C(=O)N[C@@H](CCC(N)=O)C(N)=O)(C3)NC(=O)[C@H](CC(N)=O)NC(=O)[C@H](Cc3ccccc3)NC1=O)CCCC=CC[C@]1(CCCN1C(C)=O)C(=O)N[C@@H](CC(=O)O)C(=O)N[C@@H](CC(C)(C)C)C(=O)N2` (stereo partly drawn) [I-1005, Ac-PL3-Asp-Npg-B5-Asp-TfeGA-Ala-Ile-Phe-Asn-PyrS2-2C1F-BztA-Gln-NH2], in “Solubility in PBS”, the “Solubility” value is 10 µM (≈ 21 µg/mL). Besides, the chromatographic logD in the data set “CHI Log D procedure” (pH 7.4, CHI Log D) is 2.64. Besides, in data set [1] (read-out: beta-Catenin FP IC50), the IC50 is 42 nM.
Regarding `CC(=O)N1CCC[C@]12CC=CCCCC1(CCCC=CCCCOC(=O)N3CC[C@@](C(=O)N[C@@H](Cc4ccccc4Cl)C(=O)N[C@@H](Cc4csc5ccccc45)C(=O)N[C@@H](CO)C(N)=O)(C3)NC(=O)[C@H](CO)NC(=O)[C@H](Cc3ccccc3)NC(=O)[C@H](C)NC(=O)[C@H](C)NC(=O)[C@H](CC(N)=O)NC(=O)[C@H](CC(=O)O)NC1=O)NC(=O)[C@H](CC(C)(C)C)NC(=O)[C@H](CC(=O)O)NC2=O` (stereo partly drawn) [I-1020, Ac-PL3-Asp-Npg-B5-Asp-Asn-Ala-Ala-Phe-Ser-PyrS2-2C1F-BztA-Ser-NH2], the “Solubility” value in the data set “Solubility in PBS” was found to be 10 µM (≈ 18.8 µg/mL). The chromatographic logD in the data set “CHI Log D procedure” (pH 7.4, CHI Log D) was 2.49. In data set [1] (read-out: beta-Catenin FP IC50), the IC50 amounted to 52 nM.
Turning to `CC(=O)N1CCC[C@]12CC=CCCCC1(CCCC=CCCCOC(=O)N3CC[C@@](C(=O)N[C@@H](Cc4ccccc4F)C(=O)N[C@@H](Cc4csc5ccccc45)C(=O)N[C@@H](CO)C(N)=O)(C3)NC(=O)[C@H]([C@@H](C)O)NC(=O)[C@H](Cc3ccccc3)NC(=O)[C@H](C)NC(=O)[C@H](C)NC(=O)[C@H](CC(N)=O)NC(=O)[C@H](CC(=O)O)NC1=O)NC(=O)[C@H](CC(C)(C)C)NC(=O)[C@H](CC(=O)O)NC2=O` (stereo partly drawn) [I-1024, Ac-PL3-Asp-Npg-B5-Asp-Asn-Ala-Ala-Phe-Thr-PyrS2-2FF-BztA-Ser-NH2], the Solubility in the data set “Solubility in PBS” (Solubility (uM)) turned out to be 14 µM (≈ 26.3 µg/mL). Further, in the data set “CHI Log D procedure” (pH 7.4, CHI Log D), the chromatographic logD came to 2.45. In addition, the IC50 in data set [1] (read-out: beta-Catenin FP IC50) turned out to be 43 nM.
Turning to `CC(=O)N1CCC[C@]12CC=CCCCC1(CCCC=CCCCOC(=O)N3CC[C@@](C(=O)N[C@@H](Cc4ccccc4Cl)C(=O)N[C@@H](Cc4csc5ccccc45)C(=O)N[C@@H](C(N)=O)[C@H](C)O)(C3)NC(=O)[C@H](Cc3ccccc3)NC(=O)[C@H](Cc3ccccc3)NC(=O)[C@H](C)NC(=O)[C@H](C)NC(=O)[C@H](CCC(=O)O)NC(=O)[C@H](CC(=O)O)NC1=O)NC(=O)[C@H](CC(C)(C)C)NC(=O)[C@H](CC(=O)O)NC2=O` (stereo partly drawn) [I-1038, Ac-PL3-Asp-Npg-B5-Asp-Glu-Ala-Ala-Phe-Phe-PyrS2-2C1F-BztA-dThr-NH2], in “Solubility in PBS”, the “Solubility” value was 10 µM (≈ 19.7 µg/mL). The same compound yielded a chromatographic logD in “CHI Log D procedure” (pH 7.4, CHI Log D) of 2.73. Further, in data set [1] (read-out: beta-Catenin FP IC50), the IC50 amounted to 101 nM.
On to `CC(=O)N1CCC[C@]12CC=CCCCC1(CCCC=CCCCOC(=O)N3CC[C@@](C(=O)N[C@@H](Cc4ccccc4Cl)C(=O)N[C@@H](Cc4csc5ccccc45)C(=O)N[C@@H](C(N)=O)[C@H](C)O)(C3)NC(=O)[C@H](CC(C)C)NC(=O)[C@H](Cc3ccccc3)NC(=O)[C@H](C)NC(=O)[C@H](C)NC(=O)[C@H](CCC(=O)O)NC(=O)[C@H](CC(=O)O)NC1=O)NC(=O)[C@H](CC(C)(C)C)NC(=O)[C@H](CC(=O)O)NC2=O` (stereo partly drawn) [I-1039, Ac-PL3-Asp-Npg-B5-Asp-Glu-Ala-Ala-Phe-Leu-PyrS2-2C1F-BztA-dThr-NH2], for which the concentration in solution in “Solubility in PBS” (Solubility (uM)) (Solubility) came to 20 µM (≈ 38.7 µg/mL). Besides, the chromatographic logD in “CHI Log D procedure” (pH 7.4, CHI Log D) stood at 2.65. The IC50 in data set [1] (read-out: beta-Catenin FP IC50) was 57 nM.
In “Solubility in PBS” (Solubility (uM)), `CC(=O)N1CCC[C@]12CC=CCCCC1(CCCC=CCCCOC(=O)N3CC[C@@](C(=O)N[C@@H](Cc4ccccc4Cl)C(=O)N[C@@H](Cc4csc5ccccc45)C(=O)N[C@@H](CO)C(N)=O)(C3)NC(=O)[C@H]([C@@H](C)O)NC(=O)[C@H](Cc3ccccc3)NC(=O)[C@H](C)NC(=O)[C@H](C)NC(=O)[C@H](CC(=O)O)NC(=O)[C@H](CC(=O)O)NC1=O)NC(=O)[C@H](Cc1ccccc1)NC(=O)[C@H](CC(=O)O)NC2=O` (stereo partly drawn) [I-1049, Ac-PL3-Asp-Phe-B5-Asp-Asp-Ala-Ala-Phe-Thr-PyrS2-2C1F-BztA-Ser-NH2] gave a Solubility of 48 µM (≈ 91.8 µg/mL). In the data set “CHI Log D procedure” (pH 7.4, CHI Log D), this compound returned a chromatographic logD of 2.29. Besides, in data set [1] (read-out: beta-Catenin FP IC50), the IC50 is 6 nM.
On to `C[C@@H]1NC(=O)[C@H](C)NC(=O)[C@H](CC(=O)O)NC(=O)[C@H](CC(=O)O)NC(=O)C2(CCCC=CCCCCCC[C@@](C)(C(=O)N[C@@H](Cc3ccsc3)C(=O)N[C@@H](Cc3csc4ccccc34)C(=O)N[C@@H](CCC(N)=O)C(N)=O)NC(=O)[C@H](CC(N)=O)NC(=O)[C@H](Cc3ccccc3)NC1=O)CCCC=CC[C@]1(CCCN1C(=O)CN=[N+]=[N-])C(=O)N[C@@H](CC(=O)O)C(=O)N[C@@H](CC(C)(C)C)C(=O)N2` (stereo partly drawn) [I-1052, AzAc-PL3-Asp-Npg-B5-Asp-Asp-Ala-Ala-Phe-Asn-S8-3Thi-BztA-Gln-NH2], for which, in the data set “Solubility in PBS”, the “Solubility” value worked out at 33 µM (≈ 63.2 µg/mL). For the same compound, the “CHI Log D” value in the data set “CHI Log D procedure” (pH 7.4) is recorded as 2.334. Besides, the IC50 in data set [1] (read-out: FP EC50, fluorescence polarization, beta-catenin) came out at 9 nM.
As to `C[C@@H]1NC(=O)[C@H](C)NC(=O)[C@H](CC(=O)O)NC(=O)[C@H](CC(=O)O)NC(=O)C2(CCCC=CCCCOC(=O)N3CC[C@@](C(=O)N[C@@H](Cc4ccccc4)C(=O)N[C@@H](Cc4csc5ccccc45)C(=O)N[C@@H](Cc4c[nH]cn4)C(N)=O)(C3)NC(=O)[C@H](CC(N)=O)NC(=O)[C@H](Cc3ccccc3)NC1=O)CCCC=CC[C@]1(CCCN1C(=O)CN=[N+]=[N-])C(=O)N[C@@H](CC(=O)O)C(=O)N[C@@H](CC(C)(C)C)C(=O)N2` (stereo partly drawn) [I-1055, AzAc-PL3-Asp-Npg-B5-Asp-Asp-Ala-Ala-Phe-Asn-PyrS2-Phe-BztA-His-NH2], in “Solubility in PBS”, the “Solubility” value is 10 µM (≈ 19.6 µg/mL). In “CHI Log D procedure” (pH 7.4), this compound had a chromatographic logD of 2.11. Moreover, the IC50 in data set [1] (FP EC50 (nM), fluorescence polarization, beta-catenin) stood at 7 nM.

Values taken from patent US20240116985A1, “STAPLED PEPTIDES AND METHODS THEREOF” (priority 2020, published 2024).
